Source: paper PMC6704710, “Preclinical evaluation of 3D185, a novel potent inhibitor of FGFR1/2/3 and CSF-1R, in FGFR-dependent and macrophage-dominant cancer models” (Journal of Experimental & Clinical Cancer Research : CR, 2019)

How the values were obtained:
Test in all cases: Eurofins kinase panel
Assay type in all cases: biochemical
Details in all cases: read-out: Inhibition rate (%)
CDK4/cyclinD3(h) = molecular target: T1, CDK4/cyclinD3(h) (Homo sapiens, UniProt P11802)
T1 construct: purchased Eurofins (KinaseProfiler)
T1 sequence (P11802 whole entry): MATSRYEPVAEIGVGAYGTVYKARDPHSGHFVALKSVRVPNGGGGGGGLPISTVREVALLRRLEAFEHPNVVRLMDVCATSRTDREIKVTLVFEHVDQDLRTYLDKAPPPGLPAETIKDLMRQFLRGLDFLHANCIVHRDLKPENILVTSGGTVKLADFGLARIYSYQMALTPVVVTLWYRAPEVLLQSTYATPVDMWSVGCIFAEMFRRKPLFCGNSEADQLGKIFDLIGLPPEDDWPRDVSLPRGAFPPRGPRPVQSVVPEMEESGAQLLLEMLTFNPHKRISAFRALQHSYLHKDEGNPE
T1 sequence (P30281 whole entry partner): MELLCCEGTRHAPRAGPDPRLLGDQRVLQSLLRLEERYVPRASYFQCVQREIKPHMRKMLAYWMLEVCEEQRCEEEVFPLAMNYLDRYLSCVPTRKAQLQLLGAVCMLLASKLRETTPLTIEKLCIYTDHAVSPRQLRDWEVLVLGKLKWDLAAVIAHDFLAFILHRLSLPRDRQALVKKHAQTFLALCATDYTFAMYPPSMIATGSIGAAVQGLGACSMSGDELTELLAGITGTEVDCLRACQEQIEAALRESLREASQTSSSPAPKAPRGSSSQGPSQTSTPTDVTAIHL

Met(M1268T)(h) = molecular target: T2, Met(M1268T)(h) (Homo sapiens, UniProt P08581, M1250T)
T2 construct: purchased Eurofins (KinaseProfiler)
T2 sequence (P08581 956-1390 M1250T limits assumed): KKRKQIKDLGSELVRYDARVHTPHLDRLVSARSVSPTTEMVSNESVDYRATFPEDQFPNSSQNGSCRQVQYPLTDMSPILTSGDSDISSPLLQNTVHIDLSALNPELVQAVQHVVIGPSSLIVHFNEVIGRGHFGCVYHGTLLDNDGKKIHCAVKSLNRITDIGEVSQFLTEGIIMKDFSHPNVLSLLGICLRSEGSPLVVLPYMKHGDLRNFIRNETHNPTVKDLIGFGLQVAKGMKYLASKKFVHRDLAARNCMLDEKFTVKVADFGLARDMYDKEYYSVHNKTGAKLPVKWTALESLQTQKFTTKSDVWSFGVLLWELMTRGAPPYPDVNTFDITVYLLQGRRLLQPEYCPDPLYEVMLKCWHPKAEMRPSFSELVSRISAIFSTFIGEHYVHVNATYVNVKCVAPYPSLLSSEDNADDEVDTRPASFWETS

Met(h) = molecular target: T3, Met(h) (Homo sapiens, UniProt P08581)
T3 construct: purchased Eurofins (KinaseProfiler)
T3 sequence (P08581 25-1390): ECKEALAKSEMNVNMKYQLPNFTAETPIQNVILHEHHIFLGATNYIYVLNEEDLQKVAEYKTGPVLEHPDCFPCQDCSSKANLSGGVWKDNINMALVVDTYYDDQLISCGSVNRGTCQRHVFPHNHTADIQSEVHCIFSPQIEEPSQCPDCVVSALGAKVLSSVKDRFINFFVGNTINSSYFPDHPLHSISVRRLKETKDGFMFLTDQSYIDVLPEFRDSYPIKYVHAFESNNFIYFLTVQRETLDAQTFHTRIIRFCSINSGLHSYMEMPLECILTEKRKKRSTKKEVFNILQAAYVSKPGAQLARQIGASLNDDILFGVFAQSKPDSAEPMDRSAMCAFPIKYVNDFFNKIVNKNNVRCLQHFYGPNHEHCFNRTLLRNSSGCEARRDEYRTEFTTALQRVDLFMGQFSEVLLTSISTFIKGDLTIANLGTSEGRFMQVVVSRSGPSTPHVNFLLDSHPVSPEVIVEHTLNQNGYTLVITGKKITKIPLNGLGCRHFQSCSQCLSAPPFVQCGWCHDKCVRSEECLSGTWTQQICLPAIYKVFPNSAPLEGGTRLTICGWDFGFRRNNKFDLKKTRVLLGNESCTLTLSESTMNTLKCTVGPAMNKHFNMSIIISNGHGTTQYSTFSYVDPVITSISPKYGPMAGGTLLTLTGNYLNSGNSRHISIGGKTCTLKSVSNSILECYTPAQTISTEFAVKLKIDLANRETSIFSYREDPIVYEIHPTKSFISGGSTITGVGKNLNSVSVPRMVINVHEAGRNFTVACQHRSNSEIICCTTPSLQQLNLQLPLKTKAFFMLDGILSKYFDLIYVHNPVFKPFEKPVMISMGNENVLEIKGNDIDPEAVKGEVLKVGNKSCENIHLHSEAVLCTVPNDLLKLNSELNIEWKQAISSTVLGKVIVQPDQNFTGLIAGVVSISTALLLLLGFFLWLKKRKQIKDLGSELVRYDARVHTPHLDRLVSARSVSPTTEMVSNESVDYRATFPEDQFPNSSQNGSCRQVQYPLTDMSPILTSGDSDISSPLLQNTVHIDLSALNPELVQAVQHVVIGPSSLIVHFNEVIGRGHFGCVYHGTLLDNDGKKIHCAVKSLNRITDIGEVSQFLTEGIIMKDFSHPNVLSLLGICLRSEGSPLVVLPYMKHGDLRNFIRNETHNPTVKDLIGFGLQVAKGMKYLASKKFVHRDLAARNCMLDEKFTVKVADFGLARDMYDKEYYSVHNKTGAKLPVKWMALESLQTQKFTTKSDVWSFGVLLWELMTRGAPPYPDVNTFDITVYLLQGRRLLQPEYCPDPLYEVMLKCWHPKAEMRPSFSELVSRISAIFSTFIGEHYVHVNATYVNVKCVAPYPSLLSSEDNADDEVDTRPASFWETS

PAR-1Bα(h) = molecular target: T4, PAR-1Bα(h) (Homo sapiens, UniProt Q7KZI7)
T4 construct: purchased Eurofins (KinaseProfiler)
T4 sequence (Q7KZI7 1-725 isoform Q7KZI7-4): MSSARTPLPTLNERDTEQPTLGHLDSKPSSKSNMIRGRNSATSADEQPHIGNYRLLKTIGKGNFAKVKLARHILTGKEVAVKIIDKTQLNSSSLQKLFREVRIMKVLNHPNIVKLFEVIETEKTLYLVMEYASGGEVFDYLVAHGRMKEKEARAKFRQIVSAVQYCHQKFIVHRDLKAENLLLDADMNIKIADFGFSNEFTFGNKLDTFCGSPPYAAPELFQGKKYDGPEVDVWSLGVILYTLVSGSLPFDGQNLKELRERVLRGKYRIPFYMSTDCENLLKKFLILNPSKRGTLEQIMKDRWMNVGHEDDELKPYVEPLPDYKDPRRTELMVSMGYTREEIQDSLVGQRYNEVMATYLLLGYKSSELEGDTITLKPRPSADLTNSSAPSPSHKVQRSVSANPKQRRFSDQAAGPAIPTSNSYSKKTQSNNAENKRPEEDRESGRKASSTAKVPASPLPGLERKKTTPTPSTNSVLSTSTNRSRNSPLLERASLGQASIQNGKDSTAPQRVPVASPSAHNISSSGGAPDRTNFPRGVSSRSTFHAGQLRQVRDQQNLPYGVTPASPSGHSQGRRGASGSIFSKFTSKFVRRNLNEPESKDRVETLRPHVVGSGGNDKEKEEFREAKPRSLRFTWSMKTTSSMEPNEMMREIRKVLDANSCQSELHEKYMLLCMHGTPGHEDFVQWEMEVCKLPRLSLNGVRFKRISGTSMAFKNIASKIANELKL

[1] = molecular target: T5, PI3 Kinase (p110α/p65α)(h) (Homo sapiens, UniProt P42336)
T5 construct: purchased Eurofins (KinaseProfiler)

[2] = molecular target: T6, PI3 Kinase (p110β/p85α)(h) (Homo sapiens, UniProt P42338)
T6 construct: purchased Eurofins (KinaseProfiler)

PhKγ1(h) = molecular target: T7, PhKγ1(h) (Homo sapiens, UniProt Q16816)
T7 construct: purchased Eurofins (KinaseProfiler)
T7 sequence (Q16816 whole entry): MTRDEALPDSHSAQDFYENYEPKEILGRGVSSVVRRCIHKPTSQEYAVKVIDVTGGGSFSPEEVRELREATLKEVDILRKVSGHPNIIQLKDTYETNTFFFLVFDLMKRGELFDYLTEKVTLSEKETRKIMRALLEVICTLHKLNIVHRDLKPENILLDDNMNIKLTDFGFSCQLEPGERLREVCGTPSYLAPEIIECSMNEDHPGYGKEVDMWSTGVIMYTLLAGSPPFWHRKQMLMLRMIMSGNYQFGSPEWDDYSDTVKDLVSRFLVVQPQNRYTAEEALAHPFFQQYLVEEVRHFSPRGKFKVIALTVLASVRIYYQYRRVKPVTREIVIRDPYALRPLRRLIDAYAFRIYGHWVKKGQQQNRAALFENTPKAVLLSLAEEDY

Rsk1(r) = molecular target: T8, Rsk1(r) (Rattus norvegicus, UniProt Q63531)
T8 construct: purchased Eurofins (KinaseProfiler)
T8 sequence (Q63531 whole entry): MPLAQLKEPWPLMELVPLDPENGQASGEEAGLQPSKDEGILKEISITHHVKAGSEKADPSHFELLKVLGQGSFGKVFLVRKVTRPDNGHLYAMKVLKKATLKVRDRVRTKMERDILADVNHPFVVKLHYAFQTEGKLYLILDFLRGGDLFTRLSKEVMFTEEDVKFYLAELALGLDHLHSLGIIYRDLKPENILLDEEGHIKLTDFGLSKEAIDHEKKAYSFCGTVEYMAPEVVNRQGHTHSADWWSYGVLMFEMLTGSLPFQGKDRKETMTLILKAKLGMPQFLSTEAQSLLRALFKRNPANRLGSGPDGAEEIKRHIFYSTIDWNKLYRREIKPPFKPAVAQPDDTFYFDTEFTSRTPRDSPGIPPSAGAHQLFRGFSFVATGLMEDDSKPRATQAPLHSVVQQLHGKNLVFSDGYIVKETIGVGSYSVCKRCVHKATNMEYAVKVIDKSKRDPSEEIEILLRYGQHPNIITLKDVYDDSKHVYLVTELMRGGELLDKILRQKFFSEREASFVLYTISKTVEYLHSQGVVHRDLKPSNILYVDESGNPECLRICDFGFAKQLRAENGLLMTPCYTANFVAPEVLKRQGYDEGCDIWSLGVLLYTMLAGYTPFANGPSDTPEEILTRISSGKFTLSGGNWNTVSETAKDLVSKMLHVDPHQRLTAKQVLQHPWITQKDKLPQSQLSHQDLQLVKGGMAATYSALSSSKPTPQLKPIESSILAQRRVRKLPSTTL

TAO3(h) = molecular target: T9, TAO3(h) (Homo sapiens, UniProt Q9H2K8)
T9 construct: purchased Eurofins (KinaseProfiler)
T9 sequence (Q9H2K8 1-898): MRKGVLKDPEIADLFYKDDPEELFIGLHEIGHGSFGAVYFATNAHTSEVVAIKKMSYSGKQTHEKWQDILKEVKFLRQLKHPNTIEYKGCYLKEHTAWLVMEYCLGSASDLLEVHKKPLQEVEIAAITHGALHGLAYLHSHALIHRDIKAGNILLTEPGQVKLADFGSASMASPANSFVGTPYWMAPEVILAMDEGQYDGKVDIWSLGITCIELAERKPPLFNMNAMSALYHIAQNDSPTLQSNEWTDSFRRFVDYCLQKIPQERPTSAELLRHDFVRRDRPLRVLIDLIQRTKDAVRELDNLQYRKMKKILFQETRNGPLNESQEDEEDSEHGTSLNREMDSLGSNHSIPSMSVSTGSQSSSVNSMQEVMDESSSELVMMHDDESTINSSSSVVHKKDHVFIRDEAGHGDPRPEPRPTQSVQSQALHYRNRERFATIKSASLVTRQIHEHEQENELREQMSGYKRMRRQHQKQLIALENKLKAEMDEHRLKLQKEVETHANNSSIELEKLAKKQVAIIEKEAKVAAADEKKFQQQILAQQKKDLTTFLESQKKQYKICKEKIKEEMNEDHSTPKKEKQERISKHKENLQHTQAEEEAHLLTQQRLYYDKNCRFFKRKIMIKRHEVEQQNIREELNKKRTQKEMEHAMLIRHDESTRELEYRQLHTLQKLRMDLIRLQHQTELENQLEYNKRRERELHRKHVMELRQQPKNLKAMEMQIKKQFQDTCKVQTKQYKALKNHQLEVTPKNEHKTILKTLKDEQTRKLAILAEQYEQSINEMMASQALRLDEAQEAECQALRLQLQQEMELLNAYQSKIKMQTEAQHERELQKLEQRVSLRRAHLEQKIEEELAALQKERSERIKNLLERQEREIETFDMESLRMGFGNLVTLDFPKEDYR

TGFBR2(h) = molecular target: T10, TGFBR2(h) (Homo sapiens, UniProt P37173)
T10 construct: purchased Eurofins (KinaseProfiler)
T10 sequence (P37173 23-567): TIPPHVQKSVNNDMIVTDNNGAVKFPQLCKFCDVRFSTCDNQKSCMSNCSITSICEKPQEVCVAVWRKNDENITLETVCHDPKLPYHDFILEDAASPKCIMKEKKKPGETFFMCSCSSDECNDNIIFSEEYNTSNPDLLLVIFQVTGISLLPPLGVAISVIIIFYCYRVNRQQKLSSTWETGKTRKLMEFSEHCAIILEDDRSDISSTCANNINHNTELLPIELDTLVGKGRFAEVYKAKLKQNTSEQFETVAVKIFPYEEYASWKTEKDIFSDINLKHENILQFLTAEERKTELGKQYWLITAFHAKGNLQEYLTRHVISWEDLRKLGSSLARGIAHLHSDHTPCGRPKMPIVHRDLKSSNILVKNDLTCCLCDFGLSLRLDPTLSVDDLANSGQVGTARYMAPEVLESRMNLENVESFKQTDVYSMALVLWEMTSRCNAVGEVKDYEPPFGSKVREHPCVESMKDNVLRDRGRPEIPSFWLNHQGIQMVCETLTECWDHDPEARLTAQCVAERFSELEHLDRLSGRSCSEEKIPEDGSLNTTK

`COc1cc(OC)c(Cl)c(-c2ccc3c(NC(=O)c4ccc(N5CCNC(C)(C)C5)cc4)n[nH]c3n2)c1Cl` [3D185] was tested, and the inhibition at 0.01 µM (CDK4/cyclinD3(h); 10 nM) was 5%, the inhibition at 0.1 µM (CDK4/cyclinD3(h); 100 nM) was -4% and the inhibition at 1 µM (CDK4/cyclinD3(h); 1000 nM) was 11%. For the same compound, the inhibition at 0.01 µM (Met(M1268T)(h); 10 nM) was -12%, the inhibition at 0.1 µM (Met(M1268T)(h); 100 nM) was -11% and the inhibition at 1 µM (Met(M1268T)(h); 1000 nM) was 15%. For the same compound, the inhibition at 0.01 µM (Met(h); 10 nM) was 16%, the inhibition at 0.1 µM (Met(h); 100 nM) was 15% and the inhibition at 1 µM (Met(h); 1000 nM) was 55%. It also gave an inhibition at 0.01 µM (PAR-1Bα(h); 10 nM) of -4%, an inhibition at 0.1 µM (PAR-1Bα(h); 100 nM) of -3% and an inhibition at 1 µM (PAR-1Bα(h); 1000 nM) of 2%. It also gave an inhibition at 0.01 µM ([1]; 10 nM) of 3%, an inhibition at 0.1 µM ([1]; 100 nM) of 2% and an inhibition at 1 µM ([1]; 1000 nM) of 0%. For the same compound, the inhibition at 0.01 µM ([2]; 10 nM) was 0%, the inhibition at 0.1 µM ([2]; 100 nM) was 1% and the inhibition at 1 µM ([2]; 1000 nM) was 4%. For the same compound, the inhibition at 0.01 µM (PhKγ1(h); 10 nM) was -1%, the inhibition at 0.1 µM (PhKγ1(h); 100 nM) was -9% and the inhibition at 1 µM (PhKγ1(h); 1000 nM) was -12%. It also gave an inhibition at 0.01 µM (Rsk1(r); 10 nM) of -17%, an inhibition at 0.1 µM (Rsk1(r); 100 nM) of 8% and an inhibition at 1 µM (Rsk1(r); 1000 nM) of 30%. For the same compound, the inhibition at 0.01 µM (TAO3(h); 10 nM) was -1%, the inhibition at 0.1 µM (TAO3(h); 100 nM) was 7% and the inhibition at 1 µM (TAO3(h); 1000 nM) was 36%. It also gave an inhibition at 0.01 µM (TGFBR2(h); 10 nM) of -10%, an inhibition at 0.1 µM (TGFBR2(h); 100 nM) of -5% and an inhibition at 1 µM (TGFBR2(h); 1000 nM) of -9%.
